In US5750782A, “Nitroaniline derivatives and their use as anti-tumour agents” (priority 1996, dated 1998):
Where two headings read alike, the source gives them in different places.

Tests used:
[1] = product of CB 1954 reduction by Walker cell enzyme; cited from earlier work
[2] = test system: bacterial nitroreductase enzymes; details: PCT/GB92/01947; cited from earlier work
[3] = test system: EC.1.6.99.2; details: Walker cell enzyme; cited from earlier work
[4] = test system: Walker tumour cells; details: in vivo or in vitro; cited from earlier work
[5] = test system: other tumours; details: cited from earlier work
[6] = test system: V79 cells; assay: Survival of V79 cells in the presence of the E. coli nitroreductase: A5B7 F(ab)2 conjugate; assay type: cell-based; details: 2 h, 37° C
Description: (§1) The conjugate concentration was 81 μg/ml (euivalent to 5.2 μg/ml nitroreductase) and NADII was used as a co-factor. […] No attempt was made to remove unbound conjugate.

[7] = target: T1, E. coli nitroreductase (Escherichia coli, UniProt P38489); assay: Drug reduction by the E. coli nitroreductase; assay type: biochemical; details: 120 min
T1 sequence (P38489 1-217): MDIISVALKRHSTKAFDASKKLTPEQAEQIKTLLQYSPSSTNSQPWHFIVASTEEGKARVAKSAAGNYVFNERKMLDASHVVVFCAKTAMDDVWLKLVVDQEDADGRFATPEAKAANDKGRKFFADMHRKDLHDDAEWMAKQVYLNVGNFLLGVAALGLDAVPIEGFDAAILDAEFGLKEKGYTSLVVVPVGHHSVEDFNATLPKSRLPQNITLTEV

[8] = target: T2, B. amyloliquifaciens nitroreductase (Bacillus amyloliquefaciens, UniProt Q8VSR5); assay: Drug reduction by the B. amyloliquifaciens nitroreductase; assay type: biochemical; details: 120 min
T2 sequence (Q8VSR5 1-174): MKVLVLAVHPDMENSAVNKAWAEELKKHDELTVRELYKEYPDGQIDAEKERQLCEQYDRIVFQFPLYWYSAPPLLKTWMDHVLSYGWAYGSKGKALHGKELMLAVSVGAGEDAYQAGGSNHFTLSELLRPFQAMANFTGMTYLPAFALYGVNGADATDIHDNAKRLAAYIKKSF
Description: The nitroreductase concentration was 7.45 μg/ml and NADII was ised as a co-factor.

[9] = test system: UV4; assay: Growth inhibition (IC50), UV4 cells, aerobic; assay type: cell-based; details: air, 18 h exposure
Description: (§2) Growth inhibition studies were performed as described in detail elsewhere (W.R. Wilson, R.F. Anderson and W.A Denny. J Med. Chem., 1989, 32, 23; G.J. Finlay, B.C. Baguley and W.R. Wilson. Anal Biochem., 1984, 139, 172.), using 200 viable AA8 or 300 viable UV4 cells plus 5000 lethally-irradiated AA8 feeder cells per well in 96-well tissue culture dishes. AA8 and UV4 cells were maintained in logarithmic-phase growth in […] tissue culture flasks with subculture twice weekly by trypsinization. The growth medium was antibiotic-free α-MEM with 10% v/v heat-inactivated ([…], 40 min) fetal calf serum. Doubling times were approximately 14h for AA8 and 15h for UV4 cells.

[10] = test system: AA8 cells; assay: Radiosensitisation of hypoxic AA8 cells, gamma irradiation; assay type: cell-based
Description: The radiosensitising efficiency of compound 1 has been assessed in stirred suspensions of AA8 cells under hypoxie conditions using gamma irradiation (cobalt 60) at a dose rate of 2.2 Gy/min at 37° C. Drug and cells were mixed under hypoxic conditions 30 min before irradiation.

[11] = test system: UV4 cells; assay: Clonogenic assay, UV4 cells (CT10), aerobic and hypoxic; assay type: cell-based
From the text: The product (in μM-hr) of the drug concentration times the exposure time to reduce cell survival to 10% of control values in the clonogenic assay.
Ratio of CT10 values after exposure of UV4 cells as detailed above under either aerobic (air) or hypoxic (N2) conditions (=aerobic CT10 /hypoxic CT10).

[12] = test system: AA8; assay: Growth inhibition (IC50), AA8 cells, aerobic; assay type: cell-based; details: air, 18 h exposure
Description: as §2

[13] = test system: MAWI Cells; assay: Survival of Mawi cells in the presence of the E. coli nitroreductase: A5B7 F(ab)2 conjugate; assay type: cell-based; details: 2 h, 37° C
Description: as §1

[14] = test system: bacterial nitroreductase enzymes; assay: Reductive activation by bacterial nitroreductase enzymes; assay type: biochemical, Escherichia coli and Bacillus amyloliquifaciens; details: Examples 1 to 3
[15] = test system: UV4 cell line; assay: Ratio of IC50 values against UV4 cell line in presence and absence of E. coli nitroreductase enzyme NTR-2; assay type: cell-based; details: air, ratio of IC50 in presence and absence of E. coli nitroreductase NTR-2, 1080 min
Description: as §2
Ratio of IC50 values for a compound after exposure as detailed above against the UV4 cell line in the presence and absence of the E. coli nitroreductase enzyme NTR-2.

[16] = target: T3, E. coli nitroreductase: A5B7 F(ab)2 conjugate (Escherichia coli, UniProt P38489); assay: Drug reduction by the E. coli nitroreductase: A5B7 F(ab)2 conjugate; assay type: biochemical; details: 120 min
T3 construct: A5B7 F(ab)2 antibody fragment (conjugate)
T3 sequence (P38489 1-217): T1 sequence (P38489 1-217)
Description: as §1

[17] = test system: V79 cells; assay: Survival of V79 cells in the presence of the B. amyloliquifaciens nitroreductase; assay type: cell-based; details: 2 h, 37° C
Description: The effect of SN23862 on the survival of V79 cells in the preence of the B. amyloliquifaciens nitroreductase. All treatments were for 2 hours at 37° C. and the cells were then plated out for their resulting colony forming ability. […] The initial cell density was 2×10^5 /mL.

[18] = test system: V79 cells; details: 2 h, 37° C
Description: (§3) The nitroreductase concentration was 2 μg/ml and NADH was used as a co-factor. The initial cell density was 2×10^5 /mL.

[19] = test system: AA8 and UV4 cell lines; assay: Ratio of IC50 values against AA8 and UV4 cell lines (HFair); assay type: cell-based; details: 18 h exposure
Description: as §2
Ratio of IC50 values for a compound after exposure as detailed above against AA8 and UV4 cell lines (HF=IC50 (AA8)/IC50 (UV4)).

[20] = test system: V79 cells; assay: Survival of V79 cells in the presence of the E. coli nitroreductase; details: hamster, 2 h
Description: as §3

[21] = +CG (81 μg/ml) + SN23862 + 500 μM NADH

Structure (SMILES): NC(=O)c1cc(N2CC2)c(NO)cc1[N+](=O)[O-] [5-(aziridin-1-yl)-2-nitro-4-hydroxylamino-benzamide]
- anti-tumour activity [1]: active anti-tumour agent

Structure (SMILES): NC(=O)c1cc(N2CC2)c([N+](=O)[O-])cc1[N+](=O)[O-] [CB 1954, 5-(aziridin-1-yl)-2,4-dinitrobenzaride]
- conversion into an active anti-tumour agent by bacterial nitroreductases [2]: capable of converting CB 1954 into an active anti-tumour agents
- reduction of the 4-nitro group to the corresponding hydroxylamine [3]: ability to reduce the 4-nitro group of CB 1954
- activity against the Walker tumour cells [4]: considerable activity
- activity against other tumours [5]: virtually inactive

Structure (SMILES): NC(=O)c1cc(N(CCCl)CCCl)c([N+](=O)[O-])cc1[N+](=O)[O-] [Compound 1, 5-[N,N-bis(2-chloroethyl)amino]-2,4-diritrobenzamide]
- % SURVIVAL V79 Cells ([6]; +50 μM SN23862): 94.3%
- % SURVIVAL V79 Cells ([6]; +CG (81 μg/ml) + 50 μM SN23862): 73.5%
- % SURVIVAL V79 Cells [6, 21]: 0.003%
- % SURVIVAL V79 Cells ([6]; +NADH + SN23862): 80.4%
- % DRUG REDUCTION ([7]; +50 μM SN23862): < 1.0%
- % DRUG REDUCTION ([7]; +NADH + SN23862): < 1.0%
- % DRUG REDUCTION ([7]; +NR + 50 μM SN23862): < 1.0%
- % DRUG REDUCTION ([7]; +NR + SN23862 + 500 μM NADH): 95%
- % DRUG REDUCTION ([8]; +50 μM SN23862): < 1.0%
- % DRUG REDUCTION ([8]; +BA + 50 μM SN23862): < 1.0%
- % DRUG REDUCTION ([8]; +BA + SN23862 + 500 μM NADH): > 95%
- % DRUG REDUCTION ([8]; +NADH + SN23862): < 1.0%
- IC50 [9]: 109 µM
- drug toxicity at this extent of sensitisation ([10]; at C1.6, hypoxic AA8 cells, FIG. 1): absence of drug toxicity
- Radiosensitisation of hypoxic cells ([10]; hypoxic AA8 cells, FIG. 1): Radiosensitisation of hypoxic cells was observed
- C1.6 (concentration for an enhancement ratio of 1.6) ([10]; hypoxic, 10% survival, cobalt 60, 2.2 Gy/min, 37° C, drug 30 min before irradiation): approximately 100 μM
- CT10 ratio (air/N2) ([11]; UV4 cells, aerobic CT10/hypoxic CT10): 58
- CT10 (UV4) ([11]; air, concentration x time to reduce UV4 cell survival to 10% of control): 2925 μM-h
- hypoxia-selective cytotoxicity ([11]; conclusion in words): hypoxia-selective cytotoxin
- IC50 [12]: 468 µM
- % SURVIVAL MAWI Cells ([13]; +50 μM SN23862): 90.9%
- % SURVIVAL MAWI Cells ([13]; +CG (81 μg/ml) + 50 μM SN23862): 94.6%
- % SURVIVAL MAWI Cells [13, 21]: 0.014%
- % SURVIVAL MAWI Cells ([13]; +NADH + SN23862): 93.1%
- reductive activation by bacterial nitroreductase enzymes [14]: reductively activated by bacterial nitroreductase enzymes
- HF (NR-2) [15]: 73.5
- % DRUG REDUCTION ([16]; +50 μM SN23862): < 1.0%
- % DRUG REDUCTION ([16]; +CG + 50 μM SN23862): < 1.0%
- % DRUG REDUCTION ([16]; +CG + SN23862 + 500 μM NADH): > 99%
- % DRUG REDUCTION ([16]; +NADH + SN23862): < 1.0%
- % SURVIVAL ([17]; +50 μM SN23862): 110%
- % SURVIVAL ([17]; +BA (7.45 μg/ml) + 50 μM SN23862): 110%
- % SURVIVAL ([17]; +BA (7.45 μg/ml) + SN23862 + 500 μM NADH): 6.0%
- % SURVIVAL ([17]; +NADH + SN23862): 115%
- % SURVIVAL ([18]; +50 μM SN23862): 100%
- % SURVIVAL ([18]; +NADH + SN23862): 100%
- % SURVIVAL ([18]; +NR (2 μg/ml) + 50 μM SN23862): 99%
- % SURVIVAL ([18]; +NR (2 μg/ml) + SN23862 + 500 μM NADH): 0.007%
- HF (air) = IC50 (AA8)/IC50 (UV4) [19]: 6.8

Structure (SMILES): NC(=O)C1=CN([C@@H]2O[C@H](COP(=O)(O)OP(=O)(O)OC[C@H]3O[C@@H](n4cnc5c(N)ncnc54)[C@H](O)[C@@H]3O)[C@@H](O)[C@H]2O)C=CC1 [NADH, reference compound]
- % SURVIVAL V79 Cells ([6]; +500 μM NADH alone): 94.6%
- % SURVIVAL MAWI Cells ([13]; +500 μM NADH alone): 104.6%
- % SURVIVAL [20]: 100%
- % SURVIVAL ([17]; +500 μM NADH alone): 120%
